{
  "source": "patent US9068987B2",
  "about": "“Inhibitors of extracellular HSP90” (TRUSTEES OF TUFTS COLLEGE, priority 2003, dated 2015)",
  "molecules": {"B1": {"name": "scFv1: single chain Fv antibody fragment from phage library of mice immunized with HT-1080 cells; SEQ ID NO: 1 (protein, listed as Mus sp.)", "scFv": "QVQLKESGAELVKPGASVKLSCTASGFNIKDYYMHWVKQRTEQGLEWIGRIDPEDGETKYAPKFQGKATITADTSSNTAYLQLSSLTSEDTAVYYCARSYDYAMDYWGQGTTVTVSTGGGGSGGGGSGGGGSALQIVLTQSPALMSASPGEKVTMTCSASSSVSYMHWYQQKSGTSPKRWIYDTSKLASGVPARFSGSGSGTSYSLTISSMEAEDAATYYCQQWSSNPLTFGAGTKLELKAAAGAPVPYPDPLEPRGAASAWSHPQFEK"}},
  "key": {"MMP2 (72 kDa gelatinase)": {"test_system": "MMP2 (72 kDa gelatinase)", "assay": "Zymography of secreted MMP2 after geldanamycin treatment", "type": "cell-based, human", "conditions": "HT-1080 cells, 20 μM in serum-free media", "protocol": "HT-1080 cells were treated with 20 μM geldanamycin (GA) in serum-free media and assayed by zymography. MMP2 (72 kDa gelatinase) activity was decreased by ˜35% after GA treatment. Total protein content was visualized by silver staining to ensure equal loading.\nWe then applied a known Hsp90 inhibitor, geldanamycin, to HT-1080 cells to test whether inhibition of Hsp90 reduced MMP2 activity. HT-1080 cells were treated with 20 μM geldanamycin (GA) in serum-free media and secreted MMP2 was assayed by zymography. MMP2 (72 kDa gelatinase) activity was decreased by ˜35%; p<0.01 after GA treatment. Total protein content in conditioned media was visualized by silver staining to ensure equal loading. (See, FIG. 18)."}, "HT-1080 cells [1]": {"test_system": "HT-1080 cells", "assay": "In vitro invasion assay with geldanamycin or GA-beads (Example 8)", "type": "cell-based, human", "conditions": "10 μM for 1 hour; eliminated when activated MMP2 (100 ng) was added; data not shown"}, "HT-1080 cells [2]": {"test_system": "HT-1080 cells", "assay": "Invasion assay after 1 hour pre-treatment with novobiocin or nalidixic acid", "type": "cell-based, human", "conditions": "cells pre-treated for 1 hour; normalized to no drug control; result in words", "protocol": "HT-1080 cells were pre-treated for 1 hour with novobiocin or nalidixic acid and an invasion assay was performed. […] Viability of cells in this assay was not affected (data not shown). Each data point is normalized to the no drug control and represents the mean.+−.s.e.m. of 2 experiments in triplicate.\n(§1) The ChemoTx® system (Neuro Probe Inc. #106-8, Gaithersburg) was used as a disposable chemotaxis/cell migration chamber in a 96 well format with an 8 μm filter Track etched Polycarbonate pore size, 5.7 mm diameter/site.\n(§2) 13.3 μl of 0.3 mg/ml Matrigel (see Example 8) diluted in cold Dulbeccos PBS (Gibco #14040-091) was applied on the membrane filter of the 96-well plate on row B-H and on row A0.3 μg/site of mouse collagen, type IV (Becton-Dickenson #354233) was diluted in 0.05 M HCL (Sigma #945-50) and was incubated over night at 20° C. in a desiccator for gelation, HT-1080 cells were grown to 70-80% confluence in DMEM supplemented with MEM non-essential amino acids (IX, Gibco #11140050) and Penicillin/Streptomycin (1×, Gibco #15140122) with 10% FBS (Hyclone #SH30070.03). […] After scraping the non-migrating cells from the top of the membrane (except the Standard curve on row A) fluorescence of cells, which had migrated through the membrane (not migrated in case of the Standard curve), was measured on the Tecan Spectrafluor Plus fluorescence plate reader (excitation: 544, emission: 590 nm). […]"}, "[3]": {"test_system": "matrix metalloprotease (MMP)", "assay": "Gelatin zymography of conditioned media (MMP secretion/activity)", "type": "cell-based, human", "conditions": "40,000 HT-1080 cells treated 6 hours", "protocol": "40,000 HT-1080 cells were treated for 6 hours with novobiocin or nalidixic acid (as a control) at the given concentrations. […] Two bands (A and B) correspond to unidentified MMPs. (Image inverted for clarity.)\n40,000 HT-1080 cells were treated for 6 hours with novobiocin or nalidixic acid at the given concentrations. The conditioned media from treated cells was separated using a SDS-PAGE gel containing 10 mg/mL gelantin. SDS was removed from the gel using 2.5% Triton-X-100 for 30 minutes at room temperature. Proteins were allowed to digest the gelatine in digestion buffer (0.1M […], pH 8.0, 5 mM CaCl2, 0.04% NaN3) for 48 hours at 37° C. Gels were coomassie-stained and dried for densitometry. Parallel gels were silver stained to show equal loading of protein (data not shown)."}, "HT-1080 cells [4]": {"test_system": "HT-1080 cells", "assay": "Viability of cells in the novobiocin invasion assay", "type": "cell-based, human", "conditions": "data not shown", "protocol": "8×10^6 HT-1080 cells/mL were pretreated for 1 hour with novobiocin or nalidixic acid at the concentrations shown and an invasion assay was performed as described in Example 9.1. […] Viability of novobiocin-treated cells in this assay was not affected (data not shown). Each data point is normalized to the no drug control and represents the mean.+−.s.e.m. of 2 experiments in triplicate."}, "HT-1080 cells [5]": {"test_system": "HT-1080 cells", "assay": "Invasion assay with FITC-labelled antibodies and CALI (Example 9.1)", "type": "cell-based, human", "conditions": "FITC-labelled antibody, 300 W blue-filtered light for one hour; result in words", "protocol": "Each bar is normalized to dark control and represents the mean.+−.s.e.m of at least 2 experiments in triplicate.\nas §1, §2"}, "HT-1080 cells [6]": {"test_system": "HT-1080 cells", "assay": "FACS analysis for tumor cell specific binding", "set-up": "species or system human", "conditions": "10 μg/ml scFv; HT-1080 versus HS-27 control cells", "protocol": "The binding activity of scFv1 to HT-1080 cells (bold line) and to HS-27 cells (thin line) as control is illustrated.\nTo test the ability of purified anti HT-1080 scFv to bind specifically to target cells, we performed a fluorescence-activated cell sorter (FACS) analysis using HT-1080 cells (ATCC CCL-121) and Hs-27 cells (10^6 cells/ml) as control cell line (see Figures). Cells were incubated with 10 μg/ml of pure scFv in CellWash (BD (Becton, Dickinson and Company) #349524) for 20 min at 4° C., washed, and bound scFv's were detected with a secondary FITC labeled anti E-tag mab (Amersham #27-9412-01). Samples were washed and analyzed on a Becton Dickinson FACSscan. […] The thin line represents the control cell line (HS-27) and the bold line the HT-1080 cells. scFv1 specifically stains the tumor cell lines with up to 10 fold higher signal compared to the control cell line."}, "HT-1080 cells [7]": {"test_system": "HT-1080 cells", "assay": "Cell-matrix adhesion assay (Collagen S type I)", "type": "cell-based, human", "conditions": "FITC labeled scFv, assay with CALI; data not shown", "protocol": "96-well plates (TPP #9296) (cell culture treated) were coated in Row B-H with collagen S type I 1 μg/well (Roche #10982929) in Dulbeccos PBS (Gibco #14040-091) and in Row A well 10-12 were coated with 2% BSA (Sigma #A-7030)/Dulbeccos PBS at 4° C. over night. The plate was washed with Dulbeccos PBS, blocked Row B-H and Row A well 10-12 with 2% BSA/Dulbeccos PBS for 1 h at 37° C. and washed again with Dulbeccos PBS. […] Fluorescence of cells, which had adhered to the Collagen S type 1 (not adhered in case of the Standard curve), was measured on the Fluostar Galaxy (bMG) microplate reader using excitation/emission wavelengths of 370/460 nm. scFv1 inhibited the adhesion of HT-1080 cells to Collagen S type 1 by 50%. […]"}},
  "data": [
    {"molecule": "COC1=C2C[C@@H](C)C[C@H](OC)[C@H](O)[C@@H](C)/C=C(\\C)[C@H](OC(N)=O)[C@@H](OC)/C=C\\C=C(/C)C(=O)NC(=CC1=O)C2=O", "note": "[geldanamycin]", "values": [
      {"measurement": "decrease of MMP2 (72 kDa gelatinase) activity", "setting": "MMP2 (72 kDa gelatinase)", "value": "~35", "unit": "%"},
      {"measurement": "decrease of invasion of HT-1080 cells", "setting": "HT-1080 cells [1]", "value": "~35", "unit": "%"}
    ]},
    {"molecule": "CCn1cc(C(=O)O)c(=O)c2ccc(C)nc21", "note": "[nalidixic acid]", "values": [
      {"measurement": "effect on invasion of HT-1080 cells", "setting": "HT-1080 cells [2]", "value": "no effect on invasion"},
      {"measurement": "reduction of MMP enzyme activity", "setting": "[3]; zymography", "value": "no reduction of enzyme activity"}
    ]},
    {"molecule": "CO[C@@H]1[C@@H](OC(N)=O)[C@@H](O)[C@H](Oc2ccc3c(O)c(NC(=O)c4ccc(O)c(CC=C(C)C)c4)c(=O)oc3c2C)OC1(C)C", "note": "[novobiocin]", "values": [
      {"measurement": "effect on invasion of HT-1080 cells", "setting": "HT-1080 cells [2]", "value": "dose-dependent inhibition of invasion"},
      {"measurement": "decrease of MMP activity", "setting": "[3]; highest concentration tested, zymography densitometry", "value": "> 75", "unit": "%"},
      {"measurement": "viability of treated cells", "setting": "HT-1080 cells [4]", "value": "not affected"}
    ]},
    {"molecule": "JB1: FITC-labeled anti-beta 1 integrin monoclonal antibody (JB1, Chemicon #MAB1963), positive control", "values": [
      {"measurement": "reduction of invasion after exposure to light", "setting": "HT-1080 cells [5]", "value": "significant (p<0.01, unpaired t-test) reduction of invasion"}
    ]},
    {"molecule": "B1", "values": [
      {"measurement": "FACS signal on tumor cell line compared to control cell line", "setting": "HT-1080 cells [6]", "value": "up to 10 fold"},
      {"measurement": "inhibition of adhesion of HT-1080 cells to Collagen S type 1", "setting": "HT-1080 cells [7]", "value": 50, "unit": "%"}
    ]}
  ]
}
